Results on 21 compounds are retold here after patent US8673942B2, “Fused ring compounds and use thereof” (Takeda Pharmaceutical Company Limited, priority 2008, dated 2014).

For orientation: melting point means the temperature, or range, at which the solid turns liquid. In the case of `CNC(=O)CC1CN=C(c2cc3cc(Oc4ccc(S(C)(=O)=O)nc4)cc(OC)c3[nH]2)S1` (single isomer, unassigned) [Example 32, 2-[2-(7-Methoxy-5-{[6-(methylsulfonyl)pyridin-3-yl]oxy}-1H-indol-2-yl)-4,5-dihydro-1,3-thiazol-5-yl]-N-methylacetamide], the melting point was in the range of 195 to 197 °C. Turning to `CC(C)Oc1cc(Oc2ccc(S(C)(=O)=O)cn2)cc2cc(C3=NCC(CC(C)(C)O)S3)[nH]c12` (single isomer, unassigned) [Example 64, 2-Methyl-1-{2-[7-(1-methylethoxy)-5-{[5-(methylsulfonyl)pyridin-2-yl]oxy}-1H-indol-2-yl]-4,5-dihydro-1,3-thiazol-5-yl}propan-2-ol], the melting point lay in the range of 145 to 146 °C. `CS(=O)(=O)c1ccc(Oc2cc(OCc3ccccc3)c3[nH]c(C4=NCC(CCO)S4)cc3c2)cc1` (stereo not drawn) [Example 2, 2-(2-{7-(Benzyloxy)-5-[4-(methylsulfonyl)phenoxy]-1H-indol-2-yl}-4,5-dihydro-1,3-thiazol-5-yl)ethanol] showed a melting point of 97 to 98 °C. Next, `CS(=O)(=O)c1ccc(Oc2cc(OCc3ccccc3)c3[nH]c(C4=NCC(CC(N)=O)S4)cc3c2)cc1` (stereo not drawn) [Example 4, 2-(2-{7-(Benzyloxy)-5-[4-(methylsulfonyl)phenoxy]-1H-indol-2-yl}-4,5-dihydro-1,3-thiazol-5-yl)acetamide]: 134 to 135 °C.

Compound `CS(=O)(=O)c1ccc(Oc2cc(OCc3cccc(Cl)n3)c3[nH]c(C4=NCC(CCO)S4)cc3c2)cc1` (stereo not drawn) [Example 6, 2-(2-{7-[(6-Chloropyridin-2-yl)methoxy]-5-[4-(methylsulfonyl)phenoxy]-1H-indol-2-yl}-4,5-dihydro-1,3-thiazol-5-yl)ethanol] registered a melting point of 93 to 94 °C. `CS(=O)(=O)c1ccc(Oc2cc(OCc3cccc(Cl)n3)c3[nH]c(C4=NCC(CC(N)=O)S4)cc3c2)cc1` (stereo not drawn) [Example 8, 2-(2-{7-[(6-Chloropyridin-2-yl)methoxy]-5-[4-(methylsulfonyl)phenoxy]-1H-indol-2-yl}-4,5-dihydro-1,3-thiazol-5-yl)acetamide] gave a melting point of 147 to 148 °C. Next, `CCOC(=O)c1nnc(-c2cc3cc(Oc4ccc(S(C)(=O)=O)cc4)cc(OCc4ccccc4)c3[nH]2)s1` [Example 20, Ethyl 5-{7-(benzyloxy)-5-[4-(methylsulfonyl)phenoxy]-1H-indol-2-yl}-1,3,4-thiadiazole-2-carboxylate]: 194 to 195 °C. As for `CS(=O)(=O)c1ccc(Oc2cc(OCc3ccccc3)c3[nH]c(-c4nnc(CO)s4)cc3c2)cc1` [Example 21, (5-{7-(Benzyloxy)-5-[4-(methylsulfonyl)phenoxy]-1H-indol-2-yl}-1,3,4-thiadiazol-2-yl)methanol], the figure is 159 to 160 °C; as for `CS(=O)(=O)c1ccc(Oc2cc(OCc3ccccc3)c3[nH]c(-c4ncc(CO)s4)cc3c2)cc1` [Example 23, (2-{7-(Benzyloxy)-5-[4-(methylsulfonyl)phenoxy]-1H-indol-2-yl}-1,3-thiazol-5-yl)methanol], 125 to 126 °C.

For `COc1cc(Oc2ccc(S(C)(=O)=O)nc2)cc2cc(C3=NCC(CC(N)=O)S3)[nH]c12` (stereo not drawn) [Example 29, 2-[2-(7-Methoxy-5-{[6-(methylsulfonyl)pyridin-3-yl]oxy}-1H-indol-2-yl)-4,5-dihydro-1,3-thiazol-5-yl]acetamide], the melting point was in the range of 225 to 227 °C. Next, `CNC(=O)CC1CN=C(c2cc3cc(Oc4ccc(S(C)(=O)=O)nc4)cc(OC)c3[nH]2)S1` (stereo not drawn) [Example 30, 2-[2-(7-Methoxy-5-{[6-(methylsulfonyl)pyridin-3-yl]oxy}-1H-indol-2-yl)-4,5-dihydro-1,3-thiazol-5-yl]-N-Methylacetamide]: 201 to 202 °C. The compound `COCC(COC)Oc1cc(Oc2ccc(S(C)(=O)=O)nc2)cc2cc(C3=NCC(CC(N)=O)S3)[nH]c12` (stereo not drawn) [Example 35, 2-[2-(7-[2-Methoxy-1-(methoxymethyl)ethoxy]-5-{[6-(methylsulfonyl)pyridin-3-yl]oxy}-1H-indol-2-yl)-4,5-dihydro-1,3-thiazol-5-yl]acetamide] registered a melting point of 172 to 173 °C. Next, `CNC(=O)CC1CN=C(c2cc3cc(Oc4ccc(S(C)(=O)=O)nc4)cc(OC(COC)COC)c3[nH]2)S1` (stereo not drawn) [Example 36, 2-[2-(7-[2-Methoxy-1-(methoxymethyl)ethoxy]-5-{[6-(methylsulfonyl)pyridin-3-yl]oxy}-1H-indol-2-yl)-4,5-dihydro-1,3-thiazol-5-yl]-N-methylacetamide]: 149 to 151 °C; `COCC(COC)Oc1cc(Oc2ccc(S(C)(=O)=O)nc2)cc2cc(C3=NCC(CCO)S3)[nH]c12` (stereo not drawn) [Example 37, 2-[2-(7-[2-Methoxy-1-(methoxymethyl)ethoxy]-5-{[6-(methylsulfonyl)pyridin-3-yl]oxy}-1H-indol-2-yl)-4,5-dihydro-1,3-thiazol-5-yl]ethanol]: 69 to 71 °C. Next, `CNC(=O)CC1CN=C(c2cc3cc(Oc4ccc(S(C)(=O)=O)cn4)cc(OC)c3[nH]2)S1` (stereo not drawn) [Example 42, 2-[2-(7-Methoxy-5-{[5-(methylsulfonyl)pyridin-2-yl]oxy}-1H-indol-2-yl)-4,5-dihydro-1,3-thiazol-5-yl]-N-methylacetamide]: 207 to 209 °C; `CNC(=O)CC1CN=C(c2cc3cc(Oc4ccc(S(C)(=O)=O)cn4)cc(OC(COC)COC)c3[nH]2)S1` (stereo not drawn) [Example 46, 2-[2-(7-[2-Methoxy-1-(methoxymethyl)ethoxy]-5-{[5-(methylsulfonyl)pyridin-2-yl]oxy}-1H-indol-2-yl)-4,5-dihydro-1,3-thiazol-5-yl]-N-methylacetamide]: 123 to 125 °C; `COCc1ccc(Oc2cc(OC)c3[nH]c(C4=NCC(CC(N)=O)S4)cc3c2)cn1` (stereo not drawn) [Example 49, 2-[2-(7-Methoxy-5-{[6-(methoxymethyl)pyridin-3-yl]oxy}-1H-indol-2-yl)-4,5-dihydro-1,3-thiazol-5-yl]acetamide]: 135 to 136 °C.

`CNC(=O)CC1CN=C(c2cc3cc(Oc4ccc(COC)nc4)cc(OC)c3[nH]2)S1` (stereo not drawn) [Example 50, 2-[2-(7-Methoxy-5-{[6-(methoxymethyl)pyridin-3-yl]oxy}-1H-indol-2-yl)-4,5-dihydro-1,3-thiazol-5-yl]-N-methylacetamide]: the melting point was 102 to 104 °C. With `CCNC(=O)CC1CN=C(c2cc3cc(Oc4ccc(COC)nc4)cc(OC)c3[nH]2)S1` (stereo not drawn) [Example 51, N-Ethyl-2-[2-(7-methoxy-5-{[6-(methoxymethyl)pyridin-3-yl]oxy}-1H-indol-2-yl)-4,5-dihydro-1,3-thiazol-5-yl]acetamide], the melting point lay within 130 to 132 °C. Next, `COCC(C)Oc1cc(Oc2ccc(S(C)(=O)=O)cc2)cc2cc(C3=NCC(CC(C)(C)O)S3)[nH]c12` (stereo not drawn) [Example 60, 1-(2-{7-(2-Methoxy-1-methylethoxy)-5-[4-(methylsulfonyl)phenoxy]-1H-indol-2-yl}-4,5-dihydro-1,3-thiazol-5-yl)-2-methylpropan-2-ol]: 112 to 113 °C. As for `CC(C)Oc1cc(Oc2ccc(S(C)(=O)=O)cn2)cc2cc(C3=NCC(CCO)S3)[nH]c12` (stereo not drawn) [Example 62], the figure is 172 to 173 °C.
